Measurements reported in patent US8450357B2, “Compositions comprising an aryl pyrazole and/or a formamidine, methods and uses thereof” (Merial Limited, priority 2008, dated 2013).

Experiment: Solubility of amitraz in various solvents
Format: physicochemical
Experimental: Solutions of amitraz in certain solvents at high concentration result in the appearance of crystals over time. […] The solubility of amitraz in butyl acetate is lower then in anisole, MIK and ethyl benzoate. […] Additionally, when amitraz (25%) in butyl acetate formulations were stored at 50° C. in a chamber, they evaporated slightly. […] Again, lowering concentration to 20% and addition of co-solvents with higher solubility of amitraz avoided crystallization of amitraz. Unexpectedly, this addition of co-solvents caused the effects described below in Example 9.

For `Cc1ccc(/N=C/N(C)/C=N/c2ccc(C)cc2C)c(C)c1` [Amitraz, amitraz], the “Solubility of amitraz (at room temperature, %)” value (in Acetone) was 37.87%, the “Solubility of amitraz (at room temperature, %)” value (in Anisole (methoxybenzene)) was 45.54% and the “Solubility of amitraz (at room temperature, %)” value (in Benzyl acetate) was 21.85%. The “Solubility of amitraz (at room temperature, %)” value (in Benzyl benzoate) was 33.30%, the “Solubility of amitraz (at room temperature, %)” value (in Butyl acetate) was 27.10% and the “Solubility of amitraz (at room temperature, %)” value (in Ethyl benzoate) was 39.43%. For the same molecule, the “Solubility of amitraz (at room temperature, %)” value (in Methyl isobutyl ketone) was 36.72%.
